Holding throughout (assay type): functional, cell-based
For assay [1], the target named is T1, Bombesin receptor subtype-3 (Rattus norvegicus, UniProt Q8K418).
T1 sequence (Q8K418 whole entry): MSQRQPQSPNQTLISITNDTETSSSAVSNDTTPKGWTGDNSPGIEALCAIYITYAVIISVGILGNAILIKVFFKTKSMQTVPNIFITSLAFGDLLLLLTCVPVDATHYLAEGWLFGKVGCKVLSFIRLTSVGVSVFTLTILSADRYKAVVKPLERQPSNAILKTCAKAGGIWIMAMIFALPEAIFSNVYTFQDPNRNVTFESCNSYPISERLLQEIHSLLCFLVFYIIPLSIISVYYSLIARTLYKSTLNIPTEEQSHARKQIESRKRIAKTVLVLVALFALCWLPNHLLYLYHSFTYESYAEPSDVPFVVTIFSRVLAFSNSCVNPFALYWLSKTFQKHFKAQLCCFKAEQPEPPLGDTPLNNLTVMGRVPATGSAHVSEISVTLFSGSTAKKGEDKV
The assay is described as follows: Agonist activity at rat BRS3 expressed in HEK293AEQ cells after 10 mins by aequorin bioluminescence assay.

The target in assay [2] is T2, Bombesin receptor subtype-3 (Rattus norvegicus) (UniProt Q8K418).
T2 sequence (whole entry): T1 sequence (Q8K418 whole entry)
Put plainly: Agonist activity at rat BRS3 expressed in HEK293AEQ cells after 10 mins by aequorin bioluminescence assay relative to dY-peptide. The arrangement: concentration or dose not given beside the values.

In assay [3] the target is T3, Bombesin receptor subtype-3 (Homo sapiens, UniProt P32247).
T3 sequence (P32247 whole entry): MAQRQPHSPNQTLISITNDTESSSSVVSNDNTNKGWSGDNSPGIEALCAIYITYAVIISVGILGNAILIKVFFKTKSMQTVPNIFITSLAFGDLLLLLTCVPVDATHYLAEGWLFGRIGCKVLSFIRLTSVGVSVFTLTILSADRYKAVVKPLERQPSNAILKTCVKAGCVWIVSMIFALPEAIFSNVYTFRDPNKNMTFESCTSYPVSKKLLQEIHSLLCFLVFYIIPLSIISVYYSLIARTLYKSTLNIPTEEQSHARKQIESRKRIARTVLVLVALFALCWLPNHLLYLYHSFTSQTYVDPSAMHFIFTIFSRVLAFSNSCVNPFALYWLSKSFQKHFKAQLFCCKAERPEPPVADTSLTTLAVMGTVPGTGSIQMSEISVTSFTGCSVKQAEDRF
Put plainly: Agonist activity at human BRS3 expressed in HEK293AEQ cells after 10 mins by aequorin bioluminescence assay.

Assay [4] concerns the target T4, Bombesin receptor subtype-3 (Homo sapiens) (UniProt P32247).
T4 sequence (whole entry): T3 sequence (P32247 whole entry)
Put plainly: Agonist activity at human BRS3 expressed in HEK293AEQ cells after 10 mins by aequorin bioluminescence assay relative to dY-peptide.

With `CCC(=O)Nc1n[nH]c2nc(N3CCCCC3)c3c(c12)CCN(Cc1ccccc1)C3`, the EC50 (as a rule, the concentration at which the effect is half-maximal) was determined as 0.123 µM in assay [1] and 3.47 µM in assay [3]. The Activity was 103% in assay [2] and 19% in assay [4].
Taken in the same sequence, the figures for `CC(C)(C)CNc1n[nH]c2nc(N3CCCCC3)c3c(c12)CCN(Cc1ccccc1)C3` were 0.68 µM, 4.15 µM, 94% and 29%.
Taken in the same sequence, the figures for `Nc1n[nH]c2nc(N3CCCCC3)c3c(c12)CCN(CC1CCCCC1)C3` were 10 µM, 10 µM, 49% and 12%.
Taken in the same sequence, the figures for `CC(C)(C)C(=O)Nc1n[nH]c2nc(N3CCCCC3)c3c(c12)CCN(Cc1ccccc1)C3` were 0.063 µM, 1.54 µM, 105% and 37%.
In the case of `Nc1n[nH]c2nc(N3CCCCCC3)c3c(c12)CCN(Cc1ccccc1)C3`, the values for the EC50 in assay [1] and in assay [3] were 1.44 µM and 10 µM, respectively. For the same compound, the Activity in assay [2] stood at 100%; in assay [4] it was 9%.
For `Nc1n[nH]c2nc(N3CCCCC3)c3c(c12)CCN(Cc1ccc2c(c1)OCO2)C3` the same measures were 0.402 µM, 10 µM, 94% and 1.6%.
As to `Nc1n[nH]c2nc(NC3CCCCC3)c3c(c12)CCN(Cc1ccccc1)C3`, the EC50 in assay [1] and in assay [3] was 10 µM in each case. The values for the Activity in assay [2] and in assay [4] were 50% and 1%, respectively.
`CC(=O)n1nc(N)c2c3c(c(N4CCCCC4)nc21)CN(Cc1ccccc1)CC3`: the EC50 worked out at 0.759 µM in assay [1] and 10 µM in assay [3]. The values for the Activity in assay [2] and in assay [4] were 108% and 20%, respectively.
In the case of `Nc1n[nH]c2nc(N3CCCCC3)c3c(c12)CCNC3`, the EC50 in assay [1] and in assay [3] was above 10 µM in each case. Besides, the Activity worked out at 15% in assay [2] and 0.3% in assay [4].
Take `Nc1n[nH]c2nc(N3CCCCC3)c3c(c12)CCN(CCc1ccccc1)C3`: the figures for the EC50 in assay [1] and in assay [3] were 7.91 µM and 10 µM, respectively. In addition, the Activity in assay [2] was determined as 51%; in assay [4], 3.3%.
For `CCNc1n[nH]c2nc(N3CCCCC3)c3c(c12)CCN(Cc1ccccc1)C3` the same measures were 0.471 µM, 10 µM, 105% and 53%.
Taken in the same sequence, the figures for `CC(C)(C)CN1CCc2c(c(N3CCCCC3)nc3[nH]nc(N)c23)C1` were 1.06 µM, 10 µM, 91% and 22%.
For `Nc1n[nH]c2nc(N3CCCCC3)c3c(c12)CCN(Cc1ccccc1Cl)C3` the same measures were 0.342 µM, 5.57 µM, 121% and 67%.
Regarding `Nc1n[nH]c2nc(Nc3ccccc3)c3c(c12)CCN(Cc1ccccc1)C3`, the EC50 in assay [1] and in assay [3] was 10 µM in each case. The Activity in assay [2] was found to be 60%; in assay [4], 1.5%.
As to `Nc1n[nH]c2nc(N3CCCCC3)c3c(c12)CCN(C(=O)c1ccc(F)cc1)C3`, the EC50 in assay [1] and in assay [3] was above 10 µM each time.
Take `CC(C)(C)CC(=O)Nc1n[nH]c2nc(N3CCCCC3)c3c(c12)CCN(Cc1ccccc1)C3`: the values for the EC50 in assay [1] and in assay [3] were 0.433 µM and 1.23 µM, respectively. The results for the Activity in assay [2] and in assay [4] were 93% and 52%, respectively.
For `CCC(C)(C)C(=O)Nc1n[nH]c2nc(N3CCCCC3)c3c(c12)CCN(Cc1ccccc1)C3` the same measures were 0.212 µM, 0.543 µM, 96% and 78%.
As for `Nc1n[nH]c2nc(N3CCNCC3)c3c(c12)CCN(Cc1ccccc1)C3`, the EC50 in assay [1] and in assay [3] was 10 µM throughout. Besides, the Activity in assay [2] was 31%; in assay [4] it was 0.1%.
`Nc1n[nH]c2nc(N3CCCCC3)c3c(c12)CCN(Cc1ccc(F)cc1)C3`: the EC50 in assay [1] is 3.86 µM; in assay [3], 10 µM. Also, the figures for the Activity in assay [2] and in assay [4] were 64% and 1.7%, respectively.
For `Nc1n[nH]c2nc(N3CCOCC3)c3c(c12)CCN(Cc1ccccc1)C3` the same measures were 3.56 µM, 10 µM, 82% and 1.3%.
Regarding `CC1CCN(c2nc3[nH]nc(N)c3c3c2CN(Cc2ccccc2)CC3)CC1`, the EC50 in assay [1] was 0.854 µM; in assay [3] it was 10 µM. Moreover, the Activity in assay [2] is 96%; in assay [4] it was 6.8%.
Taken in the same sequence, the figures for `CC(=O)Nc1n[nH]c2nc(N3CCCCC3)c3c(c12)CCN(Cc1ccccc1)C3` were 0.129 µM, 3.16 µM, 94% and 31%.
For `COc1ccc(CN2CCc3c(c(N4CCCCC4)nc4[nH]nc(N)c34)C2)cc1` the same measures were 10 µM, 10 µM, 8% and 0.55%.
Taken in the same sequence, the figures for `CC(C)C(=O)Nc1n[nH]c2nc(N3CCCCC3)c3c(c12)CCN(Cc1ccccc1)C3` were 0.099 µM, 4.76 µM, 102% and 37%.
Take `Nc1n[nH]c2nc(N3CCCCC3)c3c(c12)CCN(Cc1cccc(C(F)(F)F)c1)C3`: the EC50 in assay [1] and in assay [3] was 10 µM in each case. The Activity in assay [2] worked out at 38%; in assay [4], 0.3%.
As for `Nc1n[nH]c2nc(N3CCCCCCC3)c3c(c12)CCN(Cc1ccccc1)C3`, the EC50 in assay [1] and in assay [3] was 10 µM in each case. The Activity was found to be 51% in assay [2] and 3.7% in assay [4].
Take `CC(C)CN1CCc2c(c(N3CCCCC3)nc3[nH]nc(N)c23)C1`: the EC50 in assay [1] and in assay [3] was 10 µM in each case. For the same compound, the Activity in assay [2] was found to be 61%; in assay [4] it was 10%.
Turning to `Nc1n[nH]c2nc(N3CCCC3)c3c(c12)CCN(Cc1ccccc1)C3`, the EC50 was determined as 0.965 µM in assay [1] and 10 µM in assay [3]. Besides, the results for the Activity in assay [2] and in assay [4] were 99% and 12%, respectively.
For `Nc1n[nH]c2nc(N3CCC(F)CC3)c3c(c12)CCN(Cc1ccccc1)C3` the same measures were 0.481 µM, 10 µM, 96% and 10%.
Taken in the same sequence, the figures for `CN(C)c1nc2[nH]nc(N)c2c2c1CN(Cc1ccccc1)CC2` were 8.95 µM, 10 µM, 59% and 0.9%.
For `Cn1nc(N)c2c3c(c(N4CCCCC4)nc21)CN(Cc1ccccc1)CC3` the same measures were 6.06 µM, 10 µM, 73% and 7.6%.
Regarding `CC(C)Nc1nc2[nH]nc(N)c2c2c1CN(Cc1ccccc1)CC2`, the figures for the EC50 in assay [1] and in assay [3] were 7.65 µM and 10 µM, respectively. For the same compound, the Activity in assay [2] was found to be 55%; in assay [4], 1.8%.
For `Nc1n[nH]c2nc(N3CCCCC3)c3c(c12)CCN(Cc1ccccn1)C3` the same measures were 0.346 µM, 6.78 µM, 94% and 46%.
As for `O=C(Nc1n[nH]c2nc(N3CCCCC3)c3c(c12)CCN(Cc1ccccc1)C3)C1CCCC1`, the EC50 in assay [1] is 0.413 µM; in assay [3], 0.704 µM. Besides, the Activity stood at 99% in assay [2] and 61% in assay [4].
For `CN1CCN(c2nc3[nH]nc(N)c3c3c2CN(Cc2ccccc2)CC3)CC1` the same measures were 10 µM, 10 µM, 21% and 0.2%.
